From patent US12049475B2, “Bisphosphonate drug conjugates” (BRISE PHARMACEUTICALS CO., LTD., priority 2018, dated 2024)
“Also recorded” adds a separate entry of the source.

Assays:
[1] = tested on: bone metastasis; details: literature; cited from earlier work
[2] = tested on: TGF-β1 signaling in tibias; experiment: pSmad2/3 staining of tibias after intraperitoneal injection (bone delivery and release); details: 100 μg/kg intraperitoneal injection, compared with vehicle control
Description: Histochemistry, immunohistochemistry, and immunofluorescence: At the time of euthanasia, tibias were collected and fixed in 10% buffered formalin for 48 h, decalcified in 10% EDTA (pH 7.4) for 14 d, and then embedded in paraffin. […] Immunostaining was performed using a standard protocol. Sections were incubated with primary antibodies to mouse pSmad2/3 (Santa Cruz Biotechnology Inc., 1:50, sc-11769) and osteocalcin (Takara Bio Inc., 1:200, M137) overnight at 4° C. For immunohistochemical staining, a liquid Diaminobenzidine (DAB)+Chromogen System (Dako, K3468) was used to detect immunoreactivity, followed by counterstaining with hematoxylin and eosin (Sigma-Aldrich, MHS16).
Compound 1 was also tested for tissue distribution following intraperitoneal injection. […] It was then determined whether the conjugate delivered TβR1I (TGF-beta type 1 receptor inhibitor) specifically to bone and hydrolyzed over time (intraperitoneal injection, DMSO, 100 μg/kg of ALN, Inhibitor, or Conjugate).

[3] = tested on: CED mice; details: intraperitoneal injection; Nat Med. 15:757-765 (2009); cited from earlier work
[4] = tested on: CED mice; experiment: CED mouse model: histology and immunofluorescence of tibia (HE, TRAP, Ocn, Osx, Col1, CD31/Emcn, LepR); type: in vivo; details: for number of Col1+ cells compared with Littermate group / number of Ocn+ cells compared with Littermate group / number of Osx+ cells compared with Littermate group: co-staining with Emcn; for LepR+pSmad2/3+ dual positive BMSC (immunofluorescence): tibia sections
Description: (§1) Mice: According to Tang et al., Nat Med. 15:757-765 (2009), a mutation in the coding area of the TGF-β1 latency protein was generated in mice, and the active form of TGF-β1 was secreted by osteoblasts. […] All mice received the intraperitoneal injections once a week for 2 months, beginning at 1 month of age until sacrifice at 3 months of age. The tibias of the mice were collected and analyzed.
(§2) Immunostaining was performed using a standard protocol.
Immunofluorescence staining was performed using as described. […] Secondary antibodies conjugated with fluorescence were added, and slides were incubated at room temperature for 1 h while avoiding light. Sections were microphotographed to perform histomorphometric measurements (Olympus DP71). The quantitative histomorphometric analysis was conducted in a blinded fashion with OsteoMeasureXP Software (OsteoMetrics, Inc.). […]

[5] = tested on: TGF-β1 signaling (pSmad2/3) in BMSCs; experiment: pSmad2/3 immunofluorescence staining of BMSCs exposed to TGF-β1; type: cell-based, mice; details: 10 μM for 1 h, 24 h, 48 h, then 5 ng/ml TGF-β1 for 30 min
Description: (§3) Cell culture: HeLa cells and BMSCs from mice were cultured in Dulbecco's Modified Eagle's Medium (GIBCO) supplemented with 10% fetal bovine serum (FBS; Sigma), 100 units/ml penicillin, 100 μg/ml streptomycin (Sigma), and 2 mM glutamine and were incubated at 37° C. in a humidified chamber supplemented with 5% CO2. […] Cells were then exposed to 5 ng/ml of recombinant human TGF-β1 (R&D Systems) for 30 min and processed for cell staining and Western blotting.
Cell staining: BMSCs were washed 3 times with PBS and fixed by 4% paraformaldehyde (PFA) for 30 min. Cells were then washed 3 times with PBS and incubated with 3% BSA, 0.1% Triton in PBS for 1 h. […] Secondary antibodies conjugated with fluorescence were added, and plates were incubated at room temperature for 1 h while avoiding light. Cells were counted under the microscope (Olympus DP71).

[6] = tested on: TGF-β1 signaling (pSmad2) in HeLa cells; experiment: Western blot of pSmad2 in HeLa cells exposed to TGF-β1; type: cell-based, human
Description: as §3
Western blot: HeLa cells were lysed with […] and […] (Roche), and mixed with an equal volume of 2×SDS-PAGE sample buffer with DTT. Samples were boiled and cleared by centrifuge, separated by SDS-PAGE, and transferred onto nitrocellulose (NC) membranes. Membranes were blocked with 5% non-fat dry milk and incubated with primary antibodies at 4° C. overnight. Primary antibodies include rabbit anti-Smad2 antibody (Cell Signaling Technology, 3122, 1:1,000) and rabbit anti-Phospho-Smad2 (Ser465/467) antibody (Cell Signaling Technology, 3108, 1:1,000). HRP-conjugated goat anti-rabbit IgG (Santa Cruz Biotechnology, 2054, 1:5,000) was used as secondary antibody. Signals were detected with Super Signal West Dura Extended Duration Substrate (Thermo Scientific).

[7] = tested on: CED mice; experiment: CED mouse model: flow cytometry of tibia bone marrow cells; type: in vivo; details: for CD31+Emcn+ double positive cells (FACS of tibia bone marrow): 8-week treatment; for number of LepR+ cells in bone marrow (FACS): distal one-third of tibia, 2 months of treatment
Description: Flow cytometry: Bone marrow cells in the distal one-third of tibia were collected from each group (n=6) after 2 months of conjugate treatment. Red blood cells were lysed in commercial ACK lysis buffer (Quality Biological, Inc., 118-156-101). After centrifugation (1,200 r.p.m. for 5 min at room temperature), cell pellets were resuspended and fixed in 4% PFA. Cells were then washed with 0.1% BSA in PBS and counted. One million cells per milliliter were permeabilized in 0.1% Triton X-100 before blocking in 3% FACS buffer (PBS, 3% FBS, and 0.1% NaN3 sodium azide) for 30 min on ice. Cells were incubated with endomucin antibody (Santa Cruz, sc-65495), Leptin Receptor (R&D, 1:100, AF497), or isotype control antibody for 1 h at 37° C. in a dark room and then washed twice with 0.1% BSA in PBS. After washing, cells were stained with APC-conjugated CD31 antibody (R&D Systems, FAB3628A) for 45 min. Cells were acquired immediately after washing with 3% FACS buffer. Probes were analyzed using a FACS Calibur flow cytometer and CellQuest software (Becton Dickinson).

[8] = tested on: heart, liver, lung, and kidney; experiment: HE and pSmad2/3 staining of heart, liver, kidney and lung; type: in vivo, mice; details: after conjugate administration
Description: as §2

[9] = tested on: TGF-β1 signaling pathway; experiment: CED mouse model: pSmad2/3 immunohistochemistry of tibia; type: in vivo, mice; details: 8-week treatment, compared with CED group and ALN group
Description: as §1, §2
Immunofluorescence staining was performed using as described. […] Secondary antibodies conjugated with fluorescence were added, and slides were incubated at room temperature for 1 h while avoiding light. Sections were microphotographed to perform histomorphometric measurements (Olympus DP71). The quantitative histomorphometric analysis was conducted in a blinded fashion with OsteoMeasureXP Software (OsteoMetrics, Inc.). The number of positively stained cells in the whole tibia subchondral bone area per specimen was counted in five sequential sections per mouse in each group.

[10] = tested on: CED mice; experiment: CED mouse model, 8-week treatment: μCT of tibia and fracture incidence; details: for total BV/TV: among all groups; for bone fracture incidence: 100 μg/kg i.p. once a week, 2-month (8-week) treatment
Description: All transgenic animals used in this study are as described in the Animals section. […] During cell counting, microCT analysis and histological staining analysis, all manual quantification is performed in a blind manner to eliminate observer bias. Animals were randomly assigned to groups for experiments in CED animal studies.
as §1
Microcomputed tomography analysis: Tibia collected from mice were dissected to remove soft tissue, fixed overnight in 70% ethanol, and analyzed with a high-resolution microcomputed tomography (μCT) imaging system (MicroCT40; Scanco Medical AG, Basserdorf, Switzerland). The scanner was set at a voltage of 55 kVp and a current of 109 μA. The resulting two-dimensional longitude-sectional images or three-dimensional whole-bone images are shown in gray scale. Three-dimensional structural parameters, total bone volume per tissue volume, cortical bone volume, cortical bone thickness, and cortical bone porosity were given.

[11] = tested on: wild-type mice; experiment: 7-day survival of wild-type mice after conjugate injection; type: in vivo
Description: FIG. 1 presents graphs showing that a conjugate of the present disclosure, Compound 1, delivers a TβR1I specifically to bone and releases it in a time-dependent manner. […] Part (C) presents quantification of the Western-blot band intensity in (B). Data are presented as relative level of p-SMAD2/SMAD2 ratio normalized to DMSO condition. […] Part (E) presents quantification data of pSmad2/3^+ cells in (D). […] Of 6 mice in the 5 mg/kg group, 2 died in 7 days. […] Part (H) presents quantification data of pSmad2/3^+ cells in (G). In FIG. 1, the following conventions are used: NS, not significant. **P<0.01, ****P<0.0001 determined by multifactorial ANOVA. All data are reported as the mean±s.d.

[12] = pharmaceutical data, cited from earlier work

Fc1ccc(Cl)cc1-c1nc(Nc2ccncc2)c2nccnc2n1 [SD-208]
bone metastasis in mice [1]: effective in treating mice with bone metastases

c1ccc(-c2nn3c(c2-c2ccnc4cc(OCCN5CCOCC5)ccc24)CCC3)nc1 [LY2109761]
bone metastasis in mice [1]: reduce a potential of bone metastasis

OCCOc1ccc2c(-c3c(-c4ccccn4)nn4c3CCC4)ccnc2c1 [Compound S-3, reference compound]
TGF-β1 signaling in tibias (pSmad2/3 staining) [2]: did not inhibit TGF-β1 signaling; also recorded: did not show significant differences

Cc1cccc(-c2[nH]c(C(C)(C)C)nc2-c2ccc3c(c2)OCO3)n1 [SB505124]
bone remodeling defects in CED mice [3]: rescued bone remodeling defects

O=C(NCCCC(O)(P(=O)(O)O)P(=O)(O)O)OCCOc1ccc2c(-c3c(-c4ccccn4)nn4c3CCC4)ccnc2c1 [Compound 1, (1-hydroxy-4-(((2-((4-(2-(pyridin-2-yl)-5,6-dihydro-4H-pyrrolo[1,2-b]pyrazol-3-yl)quinolin-7-yl)oxy)ethoxy)carbonyl)amino)butane-1,1-diyl)bis(phosphonic acid)]
bone remodeling of CED mice ([4]; 2-month treatment): restored normal bone remodeling
CD31+Emcn+ vessel surfaces (immunofluorescence) ([4]; 8-week treatment): rescued abnormal vessel formation
number of TRAP+ cells ([4]; 8-week treatment, diaphysis): decreased
number of Ocn+ cells ([4]; 8-week treatment, diaphysis, TRAP and Ocn co-staining): decreased
level of TGF-β1 ([4]; CED mice): decreased
number and distribution of Osx+, Col1α+, and Ocn+ cells ([4]; CED mice): rescued
type H vessels ([4]; CED mice): significantly decreased
number of Col1+ cells compared with Littermate group [4]: no significant difference
number of Ocn+ cells compared with Littermate group [4]: no significant difference
number of Osx+ cells compared with Littermate group [4]: no significant difference
LepR+pSmad2/3+ dual positive BMSC (immunofluorescence) [4]: significantly decreased
number of pSmad2/3-positive cells (immunofluorescence) [5]: significantly reduced
expression level of pSmad2 (Western blot) ([6]; HeLa cells, 10 μM for 1 h, 24 h, 48 h, then 5 ng/ml TGF-β1 for 30 min): significantly reduced
start of TβR1I release in cells (after) ([6]; Western blotting and immunofluorescence staining): ≥ 24 h
CD31+Emcn+ double positive cells (FACS of tibia bone marrow) [7]: significantly reduced
number of LepR+ cells in bone marrow (FACS) ([7]; listed as conjugate): significantly decreased
HE staining and pSmad2/3 staining of heart, liver, lung, and kidney [8]: normal tissue structures and TGF-β1 activation; also recorded: does not affect other organs
pSmad2/3 positive cells in tibia [9]: significantly decreased
TGF-β1 signaling in tibias (pSmad2/3 staining) [2]: significantly reduced; also recorded: inhibited in a time-dependent manner
cortical bone parameters compared with Littermate group ([10]; 100 μg/kg per week, 8 weeks): no significant difference
total BV/TV ([10]; 100 μg/kg per week, 8 weeks): no significant difference
bone morphology of tibia (μCT three-dimensional reconstruction) ([10]; 100 μg/kg per week, 8 weeks, compared with CED and ALN-treated mice): significantly improved
total BV/TV distribution ([10]; 100 μg/kg per week, 8 weeks, tibia cross-sections): restored
bone parameters ([10]; 2-month treatment): restored bone parameters
side effects ([10]; CED mice): no obvious side effects
bone fracture incidence ([10]; CED mice): 8.3%
dose that effectively attenuated CED progression ([10]; CED mice, intraperitoneal): 100 μg/kg per week
7-day survival ([11]; 50 μg/kg, one intraperitoneal injection per week, n=6): no mice death; also recorded: survived for 7 days
7-day survival ([11]; 100 μg/kg, one intraperitoneal injection per week, n=6): no mice death; also recorded: survived for 7 days
7-day survival ([11]; 1 mg/kg, one intraperitoneal injection per week, n=6): no mice death; also recorded: survived for 7 days
mice that died in 7 days (of 6) ([11]; 5 mg/kg, one intraperitoneal injection per week): 2
7-day survival ([11]; 10 mg/kg, one intraperitoneal injection per week): all died in 3 days
safe dose ([11]; intraperitoneal administration, wild-type mice): below 5 mg/kg per week

NCCCC(O)(P(=O)(O)O)P(=O)(O)O [ALN, 4-amino-1-hydroxybutylidene-1,1-bisphosphonic acid monosodium trihydrate, reference compound]
CD31+Emcn+ vessel surfaces (immunofluorescence) ([4]; 8-week treatment): highly increased
bone formation in diaphysis bone marrow (HE staining) ([4]; 8-week treatment, compared with Conjugate and Littermate group): aberrant bone formation was found
number of Col1+ cells compared with Littermate group [4]: significantly increased
number of Ocn+ cells compared with Littermate group [4]: significantly increased
number of Osx+ cells compared with Littermate group [4]: significantly increased
LepR+pSmad2/3+ dual positive BMSC (immunofluorescence) [4]: significantly increased
CD31+Emcn+ double positive cells (FACS of tibia bone marrow) [7]: highly increased
number of LepR+ cells in bone marrow (FACS) [7]: significantly increased
time to reach bone [12]: less than 2 hours
fraction that reaches bone ([12]; the rest is excreted in urine): 50-70%
bone porosity rate ([10]; 100 μg/kg per week, 8 weeks): significantly increased
cortical bone thickness ([10]; 100 μg/kg per week, 8 weeks): significantly increased
total cortical bone volume ([10]; 100 μg/kg per week, 8 weeks): decreased
total BV/TV ([10]; 100 μg/kg per week, 8 weeks): no significant difference
bone fracture incidence ([10]; CED mice): 50%
